{
  "source": "patent US11103588B2",
  "about": "“Methods and compositions relating to carnitine-derived materials” (Wayne State University, priority 2017, dated 2021)",
  "details": "for Solubility in ACN / Solubility in CHCl3 / Solubility in EA: 80 mg/ml",
  "excerpt": "It is critical to select the right solvent for the one-step reaction to obtain L-carnitineMA monomer. Acryloyl chloride has to be dissolved in a non-protic solvent to preserve its reactivity.",
  "note": "Where a name gives a salt, the structure may show the parent alone. Read-outs that look alike come from different tables or passages of the source.",
  "data": [
    {"smiles": "C[N+](C)(C)C[C@H](O)CC(=O)[O-].Cl", "note": "[L-carnitine hydrochloride]", "values": [
      {"measurement": "Solubility in ACN", "setting": "40° C.", "value": "No (No: not soluble)"},
      {"measurement": "Solubility in ACN", "setting": "80° C.", "value": "No (No: not soluble)"},
      {"measurement": "Solubility in CHCl3", "setting": "CHCl3, 40° C.", "value": "No (No: not soluble)"},
      {"measurement": "Solubility in CHCl3", "setting": "CHCl3, 80° C.", "value": "No (No: not soluble)"},
      {"measurement": "Solubility in EA", "setting": "40° C.", "value": "No (No: not soluble)"},
      {"measurement": "Solubility in EA", "setting": "80° C.", "value": "No (No: not soluble)"},
      {"measurement": "Solubility in DMF (in words)", "setting": "80° C.", "value": "partially dissolved"}
    ]},
    {"smiles": "C[N+](C)(C)C[C@H](O)CC(=O)[O-]", "note": "[L-carnitine inner-salt]", "values": [
      {"measurement": "Solubility in ACN", "setting": "40° C.", "value": "No (No: not soluble)"},
      {"measurement": "Solubility in ACN", "setting": "80° C.", "value": "No (No: not soluble)"},
      {"measurement": "Solubility in CHCl3", "setting": "CHCl3, 40° C.", "value": "No (No: not soluble)"},
      {"measurement": "Solubility in CHCl3", "setting": "CHCl3, 80° C.", "value": "No (No: not soluble)"},
      {"measurement": "Solubility in EA", "setting": "40° C.", "value": "No (No: not soluble)"},
      {"measurement": "Solubility in EA", "setting": "80° C.", "value": "No (No: not soluble)"},
      {"measurement": "Solubility in DMF (in words)", "setting": "80° C.", "value": "totally insoluble"}
    ]}
  ]
}
